# Patent publication US7803801B2, “Aminopyridine compounds having Syk inhibitory activity” (Japan Tobacco, Inc., priority 2005, dated 2010)
# Where a name gives a salt, the structure may show the parent alone. Read-outs that look alike come from different tables or passages of the source.
# Tests used:
# [1] = test system: cultured human mast cells; experiment: Degranulation inhibition test using cultured human mast cells (IgE cross-linking, β-Hexosaminidase release); assay type: cell-based; settings: Mast cell, cultured human mast cells, read-out: human degranulation ave. IC50
# In short: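 CD34+ cord-blood cells cultured ≥8 weeks with SCF/IL-6/IL-3; FcεRI primed 5 days with rhIL-4 (1 ng/mL) and hIgE (0.5 μg/mL). Compound (0.1% DMSO) preincubated 10 min at 37 °C, then anti-IgE (final 10 μg/mL) 30 min; released β-hexosaminidase read at 405 nm versus total lysate, IC50 (M).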
# [2] = molecular target: GST-Syk Full Protein (human) (Homo sapiens, UniProt P43405); experiment: Syk kinase inhibition test (HTRF method); assay type: biochemical
# In short: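 Human GST-Syk full-length (6.4 nM) phosphorylated biotin-EDPDYEWPSA-NH2 (250 nM) with 100 μM ATP in HEPES pH 7.0/MgCl2 buffer, 2% DMSO, 30 min at room temperature. EDTA stop, then HTRF detection (streptavidin-XL665, Eu anti-phosphotyrosine) after 1 h; 665/620 ratio read.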
# [3] = anti-hIgE stimulation, β-Hexosaminidase index, average
# [4] = HTRF, 100 μM ATP, 30 min room temperature, average, read-out: sykHTRF ave IC50
# [5] = Tables 1-x, compounds A, read-out: sykHTRF ave IC50
# [6] = Tables 2-x, thiophene compounds B
# [7] = Tables 2-x, thiophene compounds B, read-out: sykHTRK ave IC50
"IC50 [1, 3] [nM]","IC50 [2, 4] [nM]",Structure (SMILES),further results
100 to 1000,100 to 1000,Cc1ccnc(Nc2cccc(-c3cnc(COCC(=O)N(C)C)s3)n2)c1 [Compound A-368],
100 to 1000,100 to 1000,Cc1ccnc(Nc2cccc(-c3cnc([C@@H](O)CN(C)C)s3)n2)c1 [Compound A-375],
> 1000,< 100,"Cc1ccnc(Nc2cccc(-c3cnc(N4CCC(C(=O)O)CC4)s3)n2)c1 [Compound A-2, 1-{5-[6-(4-methylpyridin-2-ylamino)pyridin-2-yl]thiazol-2-yl}piperidine-4-carboxylic acid]",
100 to 1000,100 to 1000,Cc1ccnc(Nc2cccc(-c3cnc([C@H]4CC[C@H](C(=O)NCCc5ccccn5)CC4)s3)n2)c1 [Compound A-279],
> 1000,100 to 1000,CCOC(=O)CC(C)(C)NC(=O)c1ncc(-c2cccc(Nc3cc(C)ccn3)n2)s1 [Compound A-155],
,,Cc1ccnc(Nc2cccc(-c3cnc(COCC(=O)N4CC(=O)NC(=O)C4)s3)n2)c1 [Compound A-393],"IC50 ([1]; Tables 1-x, compounds A): > 1000 nM; IC50 [2, 5]: 100 to 1000 nM"
,,"CC(O)c1ccnc(Nc2cccc(-c3cnc(N4CCC(C(N)=O)CC4)s3)n2)c1 (stereo not drawn) [Compound A-547, 1-(5-{6-[4-(1-hydroxyethyl)pyridin-2-ylamino]pyridin-2-yl}thiazol-2-yl)piperidine-4-carboxamide]","IC50 ([1]; Tables 1-x, compounds A): > 1000 nM; IC50 [2, 5]: < 100 nM"
> 1000,100 to 1000,CC(=O)N1C[C@H](O)C[C@H]1c1ncc(-c2cccc(Nc3cc(C)ccn3)n2)s1 [Compound A-95],
> 1000,> 1000,Cc1ccnc(Nc2cccc(-c3sc([C@H](C)NC(=O)CCC(=O)O)nc3C)n2)c1 [Compound A-116],
> 1000,100 to 1000,Cc1ccnc(Nc2cccc(-c3cnc([C@H]4CC[C@H](C(=O)N5CCCCC5)CC4)s3)n2)c1 [Compound A-274],
> 1000,100 to 1000,Cc1ccnc(Nc2cccc(-c3cnc(C(=O)NC(C)(C)C(=O)O)s3)n2)c1 [Compound A-154],
100 to 1000,100 to 1000,COc1ccnc(Nc2cccc(-c3cnc([C@H](C)N)s3)n2)c1 [Compound A-76],
100 to 1000,< 100,"Cc1ccnc(Nc2cccc(-c3cnc([C@H]4CC[C@H](C(N)=O)CC4)s3)n2)c1 [Compound A-111, trans-4-{5-[6-(4-methylpyridin-2-ylamino)pyridin-2-yl]thiazol-2-yl}cyclohexanecarboxamide]",
,,Cc1ccnc(Nc2cccc(-c3ccc(C(=O)NC(C)(C)CO)s3)n2)c1 [Compound B-72],"IC50 [1, 6]: 100 to 1000 nM; IC50 [2, 7]: 100 to 1000 nM"
100 to 1000,100 to 1000,Cc1ccnc(Nc2cccc(-c3cnc([C@@H]4CCC(=O)N4C)s3)n2)c1 [Compound A-373],
,,"CC(=O)N1CCC(N(C)c2ncc(-c3cccc(Nc4cc(C)ccn4)n3)s2)CC1 [Compound A-458, 1-[4-(N-methyl-N-{5-[6-(4-methylpyridin-2-ylamino)pyridin-2-yl]thiazol-2-yl}amino)piperidin-1-yl]ethanone]","IC50 ([1]; Tables 1-x, compounds A): 100 to 1000 nM; IC50 [2, 5]: < 100 nM"
> 1000,100 to 1000,Cc1ccnc(Nc2cccc(-c3cnc(CC(=O)OC(C)(C)C)s3)n2)c1 [Compound A-222],
100 to 1000,< 100,"CC(=O)Nc1nc(C)c(-c2cccc(Nc3cc(C)ccn3)n2)s1 [Compound A-20, N-{4-methyl-5-[6-(4-methylpyridin-2-ylamino)pyridin-2-yl]thiazol-2-yl}acetamide]",
,,Cc1ccnc(Nc2cccc(-c3ccc(C(=O)NCCC(=O)O)s3)n2)c1 [Compound B-98],"IC50 [1, 6]: > 1000 nM; IC50 [2, 7]: 100 to 1000 nM"
,,"Cc1ccnc(Nc2cccc(-c3cnc(N4CCC(C)(C(=O)NCCO)CC4)s3)n2)c1 [Compound A-503, N-(2-hydroxyethyl)-4-methyl-1-{5-[6-(4-methylpyridin-2-ylamino)pyridin-2-yl]thiazol-2-yl}-piperidine-4-carboxamide]","IC50 ([1]; Tables 1-x, compounds A): 100 to 1000 nM; IC50 [2, 5]: < 100 nM"
,,CC(=O)c1ccc(-c2cccc(Nc3cc(C(=O)O)ccn3)n2)s1 [Compound B-58],"IC50 [1, 6]: > 1000 nM; IC50 [2, 7]: > 1000 nM"
,,Cc1ccnc(Nc2cccc(-c3cnc(N(CC(=O)N(C)C)C[C@H]4CC[C@H](C(=O)O)CC4)s3)n2)c1 [Compound A-601],"IC50 ([1]; Tables 1-x, compounds A): > 1000 nM; IC50 [2, 5]: 100 to 1000 nM"
,,CN[C@@H](Cc1ccc(O)cc1)c1ncc(-c2cccc(Nc3cc(C)ccn3)n2)s1 [Compound A-384],"IC50 ([1]; Tables 1-x, compounds A): 100 to 1000 nM; IC50 [2, 5]: 100 to 1000 nM"

"IC50 [1, 3] [nM]","IC50 [2, 4] [nM]",Structure (SMILES),further results
,,"CC(=O)NCC(=O)N1CCC(N(C)c2ncc(-c3cccc(Nc4cc(C)ccn4)n3)s2)CC1 [Compound A-461, N-{2-[4-(N′-methyl-N′-{5-[6-(4-methylpyridin-2-ylamino)pyridin-2-yl]thiazol-2-yl}amino)piperidin-1-yl]-2-oxoethyl}acetamide]","IC50 ([1]; Tables 1-x, compounds A): 100 to 1000 nM; IC50 [2, 5]: < 100 nM"
> 1000,100 to 1000,Cc1ccnc(Nc2cccc(-c3cnc([C@@H](N)Cc4ccc(N)cc4)s3)n2)c1 [Compound A-180],
,,"Cc1ccnc(Nc2cccc(-c3cnc(N(C)CC(=O)N(C)CC(=O)O)s3)n2)c1 [Compound A-580, {N-methyl-N-[2-(N′-methyl-N′-{5-[6-(4-methylpyridin-2-ylamino)pyridin-2-yl]thiazol-2-yl}amino)acetyl]amino}acetic acid dihydrochloride]","IC50 ([1]; Tables 1-x, compounds A): > 1000 nM; IC50 [2, 5]: < 100 nM"
,,"CC(=O)N1CCC(N(CCO)c2ncc(-c3cccc(Nc4cc(C)ccn4)n3)s2)CC1 [Compound A-525, 1-[4-(N-(2-hydroxyethyl)-N-{5-[6-(4-methylpyridin-2-ylamino)pyridin-2-yl]thiazol-2-yl}amino)piperidin-1-yl]ethanone]","IC50 ([1]; Tables 1-x, compounds A): 100 to 1000 nM; IC50 [2, 5]: < 100 nM"
,,Cc1ccnc(Nc2cccc(-c3ccc(CN(C)C)s3)n2)c1 [Compound B-14],"IC50 [1, 6]: 100 to 1000 nM; IC50 [2, 7]: 100 to 1000 nM"
,,"Cc1ccnc(Nc2cccc(-c3ccc(C(=O)N4CCNCC4)s3)n2)c1 [Compound B-84, {5-[6-(4-methylpyridin-2-ylamino)pyridin-2-yl]thiophen-2-yl}piperazin-1-ylmethanone]","IC50 [1, 6]: 100 to 1000 nM; IC50 [2, 7]: < 100 nM"
< 100,< 100,"C[C@H](O)c1ncc(-c2cccc(Nc3cc(Cl)ccn3)n2)s1 [Compound A-322, (S)-1-{5-[6-(4-chloropyridin-2-ylamino)pyridin-2-yl]thiazol-2-yl}ethanol]",
,,"Cc1ccnc(Nc2cccc(-c3cnc(N(C)C4CCC(C(=O)O)CC4)s3)n2)c1 (stereo not drawn) [Compound A-444, 4-(methyl-{5-[6-(4-methylpyridin-2-ylamino)pyridin-2-yl]thiazol-2-yl}amino)cyclohexanecarboxylic acid]","IC50 ([1]; Tables 1-x, compounds A): 100 to 1000 nM; IC50 [2, 5]: < 100 nM"
,,Cc1ccnc(Nc2cccc(-c3sccc3C)n2)c1 [Compound B-5],"IC50 [1, 6]: > 1000 nM; IC50 [2, 7]: 100 to 1000 nM"
> 1000,100 to 1000,Cc1ccnc(Nc2cccc(-c3cnc(CNCc4ccc(C(=O)O)cc4)s3)n2)c1 [Compound A-288],
100 to 1000,100 to 1000,Cc1ccnc(Nc2cccc(-c3cnc(CN4CCN(S(C)(=O)=O)CC4)s3)n2)c1 [Compound A-198],
,,Cc1ccnc(Nc2cccc(-c3ccc([N+](=O)[O-])s3)n2)c1 [Compound B-28],"IC50 [1, 6]: > 1000 nM; IC50 [2, 7]: 100 to 1000 nM"
,,CC(=O)Oc1ccc(C(=O)N2CCC(c3ncc(-c4cccc(Nc5cc(C)ccn5)n4)s3)CC2)cc1 [Compound A-377],"IC50 ([1]; Tables 1-x, compounds A): 100 to 1000 nM; IC50 [2, 5]: 100 to 1000 nM"
,,"Cc1ccnc(Nc2cccc(-c3cnc(N4CCN(C(=O)N(C)C)CC4)s3)n2)c1 [Compound A-441, N,N-dimethyl-4-{5-[6-(4-methylpyridin-2-ylamino)pyridin-2-yl]thiazol-2-yl}piperazine-1-carboxamide]","IC50 ([1]; Tables 1-x, compounds A): 100 to 1000 nM; IC50 [2, 5]: < 100 nM"
> 1000,100 to 1000,Cc1ccnc(Nc2cccc(-c3cncs3)n2)c1 [Compound A-24],
100 to 1000,< 100,"Cc1ccnc(Nc2cccc(-c3cnc([C@H]4CC[C@H](CO)CC4)s3)n2)c1 [Compound A-211, (trans-4-{5-[6-(4-methylpyridin-2-ylamino)pyridin-2-yl]thiazol-2-yl}cyclohexyl)methanol]",
100 to 1000,100 to 1000,Cc1ccnc(Nc2cccc(-c3cnc(CC(=O)N4C[C@@H](O)[C@@H](O)C4)s3)n2)c1 [Compound A-255],
100 to 1000,100 to 1000,"Cc1ccnc(Nc2cccc(-c3cnc([C@@H](N)CO)s3)n2)c1 [Compound A-13, (S)-2-amino-2-{5-[6-(4-methylpyridin-2-ylamino)pyridin-2-yl]thiazol-2-yl}ethanol]",
100 to 1000,100 to 1000,"Cc1ccnc(Nc2cccc(-c3cnc(N4CCN(C)C(=O)C4)s3)n2)c1 [Compound A-1, 1-methyl-4-{5-[6-(4-methylpyridin-2-ylamino)pyridin-2-yl]thiazol-2-yl}piperazin-2-one]",
> 1000,100 to 1000,Cc1ccnc(Nc2cccc(-c3cnc(CN)s3)n2)c1 [Compound A-142],
> 1000,> 1000,CC(=O)N[C@@H](C)c1nc(N)c(-c2cccc(Nc3cc(C)ccn3)n2)s1 [Compound A-115],
100 to 1000,< 100,"Cc1ccnc(Nc2cccc(-c3cnc(CCC4CCN(C(=O)CO)CC4)s3)n2)c1 [Compound A-263, 2-hydroxy-1-[4-(2-{5-[6-(4-methylpyridin-2-ylamino)pyridin-2-yl]thiazol-2-yl}ethyl)piperidin-1-yl]ethanone]",
